Measured values from patent US7148204B2, “Antisense modulation of bcl-x expression” (Isis Pharmaceuticala, Inc., priority 1998, dated 2006).
In the oligonucleotide strings, read from the 5' end, every base follows the letter of its sugar. An asterisk marks phosphorothioate; unmarked linkages are phosphodiester. Other units and linkages are bracketed, terminal groups are in braces. A string of capitals states the bases alone. e = 2'-O-(2-methoxyethyl) (MOE); [5mC] = 5-methylcytosine; d = 2'-deoxy (DNA)

Columns and labels:
human bcl-x mRNA = assay: Northern blot analysis of bcl-x mRNA levels in A549 cells; format: cell-based; details: for IC50: dose-response, Northern blot
Description: Eighteen hours after antisense treatment, cell monolayers were washed twice with cold PBS and lysed in 1 mL RNAZOL™ (TEL-TEST “B” Inc., Friendswood, Tex.). Total RNA was prepared following manufacturer's recommended protocols. Twenty micrograms of total RNA was fractionated by electrophoresis through 1.2% agarose gels containing 1.1% formaldehyde using a MOPS buffer system (AMRESCO, Inc. Solon, Ohio). RNA was transferred from the gel to HYBOND™-N+ nylon membranes (Amersham Pharmacia Biotech, Piscataway, N.J.) by overnight capillary transfer using a Northern/Southern Transfer buffer system (TEL-TEST “B” Inc., Friendswood, Tex.). RNA transfer was confirmed by UV visualization. Membranes were fixed by UV cross-linking using a STRATALINKER™ UV Crosslinker 2400 (Stratagene, Inc, La Jolla, Calif.).
Membranes were probed using QUICKHYB™ hybridization solution (Stratagene, La Jolla, Calif.) using manufacturer's recommendations for stringent conditions with an 822-base pair bcl-x specific probe prepared by PCR from bases 33–855 of human bcl-xl sequence (Boise et al., 1993, Cell 74:597–608; GenBank accession no. L20121). To normalize for variations in loading and transfer efficiency membranes were stripped and probed for glyceraldehyde-3-phosphate dehydrogenase (GAPDH) RNA (Clontech, Palo Alto, Calif.). Hybridized membranes were visualized and quantitated using a PHOSPHORIMAGER™ and IMAGEQUANT™ Software V3.3 (Molecular Dynamics, Sunnyvale, Calif.). Data was normalized to GAPDH levels in untreated controls.
Oligonucleotides were tested by Northern blot analysis as described in Example 14. Oligonucleotides were tested in A549 cells at a concentration of 400 nM. The results are Table 2:
Oligonucleotides were tested by Northern blot analysis as described in Example 14. Chimeric oligonucleotides were in A549 cells at a concentration of 200 nM. Where present, “N.D.” indicates “not determined”.

bcl-xs/bcl-xl mRNA ratio = assay: RNase protection assay, bcl-xs/bcl-xl mRNA ratio in A549 cells; format: cell-based, human; details: A549 cells, RPA, 200 nM; no oligo = 1
Excerpt: The ribonuclease (RNase) protection assay is a sensitive and specific method for quantitating expression levels (Zinn, et al., Cell, 1983, 34:865–79). The method is based on the hybridization of a target RNA to an in vitro transcribed ^32P-labeled anti-sense RNA probe from a DNA template. RNase treatment follows, resulting in degradation of single-stranded RNA and excess probe. The probe and target RNA are resolved by denaturing polyacrylamide gel electrophoresis with the “protected” probe visualized using autoradiography or beta imaging equipment. Template sets can be purchased (PharMingen Inc., San Diego Calif.) which contain a series of biologically relevant templates, each of distinct length and each representing a sequence in a distinct mRNA species. Each template set is capable of detecting up to 11 unique gene messages in a single reaction mix in addition to one or more housekeeping genes, L32 and GAPDH, which serve as internal controls. These template sets allow for multiple determinations to be made from a single sample. Multi-probe RPA can be performed on total RNA preparations derived by standard methods, without further purification of poly-A+ RNA.
Oligonucleotides were evaluated for their respective effects on bcl-xs and bcl-xl mRNA levels along with total bcl-x mRNA levels, using the RIBOQUANT™ RNase protection kit (Pharmingen, San Diego Calif.). All assays were performed according to manufacturer's protocols. Briefly, multi-probe DNA template sets were used to generate antisense RNA transcripts radiolabeled with […]. The template set used for apoptosis genes was the human hAPO-2 set. These radiolabeled probes were hybridized overnight with typically 10 μg of total cellular RNA. The reaction mixture was then digested with single-strand RNases to generate the protected fragments which were electrophoresed through a 5% acrylamide/urea gel. Protected bands were visualized and quantitated using a PhosphorImager (Molecular Dynamics, Sunnyvale Calif.).
Human bcl-x has two forms, a long form known as bcl-xl and a short form known as bcl-xs. […] The protein of bcl-xl is similar in size and structure to bcl-2, and could inhibit cell death upon growth factor withdrawal. The protein of bcl-xs is 63 amino acids shorter than bcl-xl. It could inhibit the bcl-2 function, thus promoting programmed cell death (apoptosis). Oligonucleotides were evaluated for their respective effects on bcl-xs and bcl-xl mRNA levels along with total bcl-x mRNA levels, using the RIBOQUANT™ RNase protection kit (Pharmingen, San Diego Calif.). All assays were performed according to manufacturer's protocols.
These oligonucleotides were tested for their inhibitory effects on bcl-xl and bcl-xs mRNA levels in A549 cells, as detected by RPA analysis. Oligonucleotide concentration was 200 nM.

[1] = 200 nM chimeric oligonucleotide

Substance | % CONTROL (bcl-x mRNA levels) (human bcl-x mRNA; [1]) [%] | % INHIB (bcl-x mRNA levels) (human bcl-x mRNA; [1]) [%] | % CONTROL (bcl-x mRNA levels) (human bcl-x mRNA; 400 nM oligonucleotide) [%] | % INHIB (bcl-x mRNA levels) (human bcl-x mRNA; 400 nM oligonucleotide) [%] | also measured
15999 (antisense eT*e[5mC]*e[5mC]*e[5mC]*eG*dG*dT*dT*dG*dC*dT*dC*dT*dG*dA*eG*eA*e[5mC]*eA*eT) [compound 15999] | 4 | 96 |  |  | 
11227 (antisense dA*dA*dA*dG*dT*dC*dA*dA*dC*dC*dA*dC*dC*dA*dG*dC*dT*dC*dC*dC) [compound 11227] |  |  | 10 | 90 | 
TGGTTCTTACCCAGCCGCCG (all 2'-MOE, all phosphorothioate, methylation of C not given here) [ISIS 105751] |  |  |  |  | bcl-xs/bcl-xl Fold difference (bcl-xs/bcl-xl mRNA ratio): 45 fold
11220 (antisense dC*dA*dG*dT*dG*dT*dC*dT*dG*dG*dT*dC*dA*dT*dT*dT*dC*dC*dG*dA) [compound 11220] |  |  | 12 | 88 | 
11222 (antisense dG*dT*dT*dG*dA*dA*dG*dC*dG*dT*dT*dC*dC*dT*dG*dG*dC*dC*dC*dT) [compound 11222] |  |  | 35 | 65 | 
16003 (antisense eA*eG*eT*eG*eG*dC*dT*dC*dC*dA*dT*dT*dC*dA*dC*e[5mC]*eG*e[5mC]*eG*eG) [compound 16003] | 12 | 88 |  |  | 
11219 (antisense dC*dG*dG*dG*dT*dT*dC*dT*dC*dC*dT*dG*dG*dT*dG*dG*dC*dA*dA*dT) [compound 11219] |  |  | 6 | 94 | 
16014 (antisense eA*eG*e[5mC]*eG*eT*dT*dC*dC*dT*dG*dG*dC*dC*dC*dT*eT*eT*e[5mC]*eG*eG) [compound 16014] | 22 | 78 |  |  | 
11993 (antisense dT*dC*dA*dT*dT*dC*dA*dC*dT*dA*dC*dC*dT*dG*dT*dT*dC*dA*dA*dA) [compound 11993] |  |  | 142 |  | 
16007 (antisense eT*eA*e[5mC]*e[5mC]*e[5mC]*dC*dA*dT*dC*dC*dC*dG*dG*dA*dA*eG*eA*eG*eT*eT) [compound 16007] | 31 | 69 |  |  | 
16001 (antisense eT*e[5mC]*e[5mC]*eA*eT*dC*dT*dC*dC*dG*dA*dT*dT*dC*dA*eG*eT*e[5mC]*e[5mC]*e[5mC]) [compound 16001] | 17 | 83 |  |  | 
11229 (antisense dA*dC*dC*dA*dG*dT*dC*dC*dA*dT*dT*dG*dT*dC*dC*dA*dA*dA*dA*dC) [compound 11229] |  |  | 60 | 40 | 
11228 (antisense dC*dC*dG*dG*dT*dT*dG*dC*dT*dC*dT*dG*dA*dG*dA*dC*dA*dT*dT*dT) [compound 11228] |  |  | 31 | 69 | 
11224 (antisense dT*dC*dG*dC*dC*dT*dG*dC*dC*dT*dC*dC*dC*dT*dC*dA*dG*dC*dG*dC) [compound 11224] |  |  | 6 | 94 | IC50 (human bcl-x mRNA): ~175 nM
16005 (antisense eG*e[5mC]*e[5mC]*eG*eG*dT*dA*dC*dC*dG*dC*dA*dG*dT*dT*e[5mC]*eA*eA*eA*e[5mC]) [compound 16005] | 17 | 83 |  |  | 
16004 (antisense e[5mC]*eT*eT*eG*e[5mC]*dT*dT*dT*dA*dC*dT*dG*dC*dT*dG*e[5mC]*e[5mC]*eA*eT*eG) [compound 16004] | 5 | 95 |  |  | 

Substance | % CONTROL (bcl-x mRNA levels) (human bcl-x mRNA; [1]) [%] | % INHIB (bcl-x mRNA levels) (human bcl-x mRNA; [1]) [%] | % CONTROL (bcl-x mRNA levels) (human bcl-x mRNA; 400 nM oligonucleotide) [%] | % INHIB (bcl-x mRNA levels) (human bcl-x mRNA; 400 nM oligonucleotide) [%] | also measured
11221 (antisense dA*dG*dC*dC*dC*dA*dG*dC*dA*dG*dA*dA*dC*dC*dA*dC*dG*dC*dC*dG) [compound 11221] |  |  | 11 | 89 | 
15998 (antisense eT*eA*eA*eT*eA*dG*dG*dG*dA*dT*dG*dG*dG*dC*dT*e[5mC]*eA*eA*e[5mC]*e[5mC]) [compound 15998] | 13 | 87 |  |  | 
11230 (antisense dG*dA*dA*dG*dG*dG*dA*dG*dA*dG*dA*dA*dA*dG*dA*dG*dA*dT*dT*dC) [compound 11230] |  |  | 135 |  | 
16018 (antisense eG*eA*eG*eG*eG*dT*dA*dG*dA*dG*dT*dG*dG*dA*dT*eG*eG*eT*e[5mC]*eA) [compound 16018] | 40 | 60 |  |  | 
11223 (antisense dC*dA*dG*dT*dG*dC*dC*dC*dC*dG*dC*dC*dG*dA*dA*dG*dG*dA*dG*dA) [compound 11223] |  |  | 9 | 91 | 
16011 (antisense e[5mC]*eT*eG*eG*eA*dT*dC*dC*dA*dA*dG*dG*dC*dT*dC*eT*eA*eG*eG*eT) [compound 16011] | 31 | 69 |  |  | 
16002 (antisense eA*eG*eG*eT*eG*dC*dC*dA*dG*dG*dA*dT*dG*dG*dG*eT*eT*eG*e[5mC]*e[5mC]) [compound 16002] | 8 | 92 |  |  | 
16015 (antisense eG*eT*e[5mC]*eA*eT*dG*dC*dC*dC*dG*dT*dC*dA*dG*dG*eA*eA*e[5mC]*e[5mC]*eA) [compound 16015] | 12 | 88 |  |  | 
16019 (antisense eG*eG*eA*eG*eG*dA*dT*dG*dT*dG*dG*dT*dG*dG*dA*eG*e[5mC]*eA*eG*eA) [compound 16019] | 40 | 60 |  |  | 
11226 (antisense dA*dT*dT*dC*dA*dG*dT*dC*dC*dC*dT*dT*dC*dT*dG*dG*dG*dG*dC*dC) [compound 11226] |  |  | 34 | 66 | 
11225 (antisense dC*dA*dG*dT*dG*dG*dC*dT*dC*dC*dA*dT*dT*dC*dA*dC*dC*dG*dC*dG) [compound 11225] |  |  | 25 | 75 | 
CGGGTTCTCCTGGTGGCAAT (all phosphorothioate, sugars by position and methylation of C not given here; further chemistry not fully specified) [ISIS 11219] |  |  |  |  | IC50 (human bcl-x mRNA): ~250 nM
16000 (antisense eG*eG*eG*e[5mC]*e[5mC]*dT*dC*dA*dG*dT*dC*dC*dT*dG*dT*eT*e[5mC]*eT*e[5mC]*eT) [compound 16000] | 4 | 96 |  |  | 
16010 (antisense eT*e[5mC]*e[5mC]*eA*eA*dG*dC*dT*dG*dC*dG*dA*dT*dC*dC*eG*eA*e[5mC]*eT*e[5mC]) [compound 16010] | 13 | 87 |  |  | 
16006 (antisense e[5mC]*eT*eG*eT*eT*dC*dA*dA*dA*dG*dC*dT*dC*dT*dG*eA*eT*eA*eT*eG) [compound 16006] | 28 | 72 |  |  | 
